Results taken from the supplement of paper PMC10307832.

Assays:
Assay in all cases: relative viability (nuclei count vs DMSO), 5 days (fraction); higher = more cells survive
[1] = system: HOP-62
In short: (§1)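 Relative viability was taken as the ratio of nuclei in treated wells to nuclei in vehicle wells. Lung cancer cell lines in 1536-well plates received compounds by pin tool one day after seeding, either one drug alone or a fixed anchor-drug dose plus five library-drug doses (not always all listed) in √10 steps. Nuclei were counted on 4× images after 5 days of treatment, and values are medians of duplicate plates.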

[2] = system: NCI-H2405
In short: as §1

[3] = system: NCI-H647
In short: as §1

[4] = system: 201T
In short: as §1

[5] = system: COR-L23
In short: as §1

[6] = system: NCI-H460
In short: as §1

[7] = system: EMC-BAC-2
In short: as §1

[8] = system: NCI-H1563
In short: as §1

[9] = system: NCI-H1915
In short: as §1

[10] = system: NCI-H1734
In short: as §1

[11] = system: PC-14
In short: as §1

[12] = system: NCI-H1993
In short: as §1

[13] = system: A-427
In short: as §1

[14] = system: BEN
In short: as §1

[15] = system: HCC-15
In short: as §1

[16] = system: HCC-78
In short: as §1

[17] = system: NCI-H661
In short: as §1

[18] = system: HCC-366
In short: as §1

[19] = system: COR-L 105
In short: as §1

SMILES: Cc1cn(-c2cc(NC(=O)c3ccc(C)c(Nc4nccc(-c5cccnc5)n4)c3)cc(C(F)(F)F)c2)cn1 [Nilotinib] + CC(C)C[C@H](NC(=O)[C@H](Cc1ccccc1)NC(=O)c1cnccn1)B(O)O [Bortezomib] (partner 0.002 µM)
- relative viability ([1]; first compound 0.001 µM): 0.706
- relative viability ([1]; first compound 0.003162 µM): 0.861
- relative viability ([1]; first compound 0.01 µM): 0.28
- relative viability ([1]; first compound 0.03162 µM): 0.576
- relative viability ([2]; first compound 0.001 µM): 0.995
- relative viability ([2]; first compound 0.01 µM): 1.07
- relative viability ([2]; first compound 0.03162 µM): 0.762
- relative viability ([2]; first compound 0.1 µM): 0.553
- relative viability ([3]; first compound 0.001 µM): 0.79
- relative viability ([3]; first compound 0.003162 µM): 1.52
- relative viability ([3]; first compound 0.03162 µM): 0.57
- relative viability ([3]; first compound 0.1 µM): 0.951
- relative viability ([4]; first compound 0.001 µM): 1.12
- relative viability ([4]; first compound 0.003162 µM): 1.09
- relative viability ([4]; first compound 0.01 µM): 1.08
- relative viability ([4]; first compound 0.1 µM): 1.11
- relative viability ([5]; first compound 0.001 µM): 0.726
- relative viability ([5]; first compound 0.003162 µM): 1.24
- relative viability ([5]; first compound 0.01 µM): 1.22
- relative viability ([5]; first compound 0.03162 µM): 0.858
- relative viability ([5]; first compound 0.1 µM): 0.907
- relative viability ([6]; first compound 0.001 µM): 0.689
- relative viability ([6]; first compound 0.03162 µM): 0.627
- relative viability ([6]; first compound 0.1 µM): 0.866
- relative viability ([7]; first compound 0.001 µM): 1.03
- relative viability ([7]; first compound 0.003162 µM): 1.08
- relative viability ([7]; first compound 0.01 µM): 1.09
- relative viability ([7]; first compound 0.03162 µM): 0.922
- relative viability ([7]; first compound 0.1 µM): 1.05
- relative viability ([8]; first compound 0.001 µM): 0.878
- relative viability ([8]; first compound 0.003162 µM): 0.84
- relative viability ([8]; first compound 0.01 µM): 0.79
- relative viability ([8]; first compound 0.03162 µM): 0.704
- relative viability ([8]; first compound 0.1 µM): 0.623
- relative viability ([9]; first compound 0.001 µM): 0.932
- relative viability ([9]; first compound 0.003162 µM): 1.17
- relative viability ([9]; first compound 0.01 µM): 1.18
- relative viability ([9]; first compound 0.03162 µM): 0.823
- relative viability ([9]; first compound 0.1 µM): 0.85
- relative viability ([10]; first compound 0.001 µM): 0.877
- relative viability ([10]; first compound 0.003162 µM): 0.948
- relative viability ([10]; first compound 0.01 µM): 1.01
- relative viability ([10]; first compound 0.03162 µM): 0.558
- relative viability ([10]; first compound 0.1 µM): 0.6
- relative viability ([11]; first compound 0.003162 µM): 1.05
- relative viability ([11]; first compound 0.01 µM): 1.02
- relative viability ([11]; first compound 0.03162 µM): 0.797
- relative viability ([11]; first compound 0.1 µM): 0.867
- relative viability ([12]; first compound 0.001 µM): 1.11
- relative viability ([12]; first compound 0.003162 µM): 0.878
- relative viability ([12]; first compound 0.01 µM): 1.06
- relative viability ([12]; first compound 0.03162 µM): 0.896
- relative viability ([12]; first compound 0.1 µM): 0.953
- relative viability ([13]; first compound 0.001 µM): 0.928
- relative viability ([13]; first compound 0.01 µM): 0.95
- relative viability ([13]; first compound 0.03162 µM): 1.02
- relative viability ([13]; first compound 0.1 µM): 0.536
- relative viability ([14]; first compound 0.001 µM): 0.782
- relative viability ([14]; first compound 0.003162 µM): 0.843
- relative viability ([14]; first compound 0.01 µM): 0.788
- relative viability ([14]; first compound 0.1 µM): 0.721
- relative viability ([15]; first compound 0.001 µM): 0.92
- relative viability ([15]; first compound 0.003162 µM): 1.41
- relative viability ([15]; first compound 0.01 µM): 1.33
- relative viability ([15]; first compound 0.03162 µM): 0.855
- relative viability ([15]; first compound 0.1 µM): 0.629
- relative viability ([16]; first compound 0.001 µM): 0.433
- relative viability ([16]; first compound 0.003162 µM): 0.514
- relative viability ([16]; first compound 0.01 µM): 0.654
- relative viability ([16]; first compound 0.03162 µM): 0.55
- relative viability ([16]; first compound 0.1 µM): 0.518
- relative viability ([17]; first compound 0.001 µM): 0.752
- relative viability ([17]; first compound 0.003162 µM): 0.831
- relative viability ([17]; first compound 0.01 µM): 1.02
- relative viability ([17]; first compound 0.03162 µM): 0.642
- relative viability ([17]; first compound 0.1 µM): 0.815
- relative viability ([18]; first compound 0.001 µM): 0.88
- relative viability ([18]; first compound 0.003162 µM): 1.74
- relative viability ([18]; first compound 0.01 µM): 1.35
- relative viability ([18]; first compound 0.03162 µM): 0.692
- relative viability ([18]; first compound 0.1 µM): 0.844
- relative viability ([19]; first compound 0.001 µM): 0.903
- relative viability ([19]; first compound 0.01 µM): 0.812
- relative viability ([19]; first compound 0.03162 µM): 0.601
- relative viability ([19]; first compound 0.1 µM): 0.333
